Measurements published in PubChem BioAssay (NCI).
Values joined by “and” are separate entries in the source; they are usually repeats but may differ in a detail not shown here. Identical values can stand only once.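 Exposure lasted 48 hours, with cells grown in 96-well plates and compounds tested at five concentrations. Abbreviation: GI50, concentration required for 50% inhibition of growth. TGI denotes the concentration required for complete inhibition of growth.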

How the values were obtained:
Assay in all cases: NCI tumour cell line growth inhibition, 48 h
LXFL 529 NSCLC = tested on: LXFL 529 NSCLC
DMS 273 small cell lung = tested on: DMS 273 small cell lung
DMS 114 small cell lung = tested on: DMS 114 small cell lung
SNB-78 CNS = tested on: SNB-78 CNS
RXF-631 renal = tested on: RXF-631 renal
XF 498 CNS = tested on: XF 498 CNS
HOP-18 NSCLC = tested on: HOP-18 NSCLC
MDA-N = tested on: MDA-N
HS 578T breast = tested on: HS 578T breast
P388/ADR leukemia = tested on: P388/ADR leukemia
SN12K1 renal = tested on: SN12K1 renal
P388 leukemia = tested on: P388 leukemia

Row | SMILES | TGI (LXFL 529 NSCLC) | TGI (DMS 273 small cell lung) | TGI (DMS 114 small cell lung) | TGI (SNB-78 CNS) | TGI (RXF-631 renal) [µM] | TGI (XF 498 CNS) [µM] | TGI (HOP-18 NSCLC) | further results
1 | C#Cc1cc(CN(CC(=O)OC(C)(C)C)CC(=O)OC(C)(C)C)nc(CN(CC(=O)OC(C)(C)C)CC(=O)OC(C)(C)C)c1 | 11.4 µM | 28.6 µM | 11.5 µM | 70.4 µM | 38.7 | 36.6 | – | –
2 | Cn1nc2ccccc2cc1=O | – | > 100 µM | > 100 µM | > 100 µM | > 100 | > 100 | > 100 µM | –
3 | Nc1nc(=Nc2ccccc2)ss1 | > 100 µM | > 100 µM | > 100 µM | > 100 µM | > 100 | > 100 | > 100 µM | –
4 | CCOC(=O)NC1CC2CCC1(OC)C=C2C (configuration not stated) | > 100 µM | > 100 µM | > 100 µM | > 100 µM | – | > 100 | > 100 µM | –
5 | CCCCCCCCCCCCC(CCCCCCCCCCCC)OP(=O)(O)O | > 100 µM | > 100 µM | > 100 µM | > 100 µM | > 100 | > 100 | > 100 µM | –
6 | CC[CH2][Sn]([CH2]CC)([O]C(=O)Cc1ccc(F)cc1)[O][Sn]([CH2]CC)([CH2]CC)[O]C(=O)Cc1ccc(F)cc1 | 0.099 µM | 1.13 µM | 0.119 µM | – | – | 0.302 | 0.828 µM | GI50 (LXFL 529 NSCLC): 0.0129 µM; GI50 (HOP-18 NSCLC): 0.25 µM; GI50 (DMS 273 small cell lung): 0.205 µM; GI50 (DMS 114 small cell lung): 0.029 µM; GI50 (MDA-N): 0.317 µM; TGI (MDA-N): 1.43 µM; GI50 (XF 498 CNS): 0.161 µM
7 | CCCCCCCCCCCCCCCCCC[N+](C)(C)Cc1ccc(C[N+](C)(C)CCCCCCCCCCCCCCCCCC)cc1 | 12.8 µM | 45.9 µM | 34.1 µM | 47.1 µM | 57.1 | – | 34.8 µM | –
8 | COC1CC(OC)C(O)C(CO)O1 (configuration not stated) | > 100 µM | – | – | > 100 µM | – | > 100 | > 100 µM | –
9 | COc1ccccc1NC(=O)C(CC(C(=O)Nc1ccccc1OC)/C(C)=N/NC(=O)c1ccccc1O)/C(C)=N/NC(=O)c1ccccc1O (configuration not stated) | > 100 µM | > 100 µM | > 100 µM | > 100 µM | > 100 | > 100 | – | –
10 | COC(=O)C1=C(C)N(NC(N)=O)C(C)(O)C12CCOC2=O (configuration not stated) | > 100 µM | > 100 µM | > 100 µM | > 100 µM | – | > 100 | > 100 µM | –
11 | Cc1ccc(N2C(=O)C(Cl)=C(Cl)C2=O)cc1 | 38.5 µM | > 100 µM | 36.5 µM | 54.9 µM | 42.2 | – | 36.3 µM | –
12 | FC(F)(F)c1nc(-c2ccccc2)oc1Sc1oc(-c2ccccc2)nc1C(F)(F)F | > 100 µM | > 100 µM | > 100 µM | > 100 µM | – | > 100 | > 100 µM | –
13 | O=C(O)CCSC(=S)Nc1ccc([N+](=O)[O-])cc1 | > 100 µM | > 100 µM | > 100 µM | > 100 µM | – | – | – | TGI (HS 578T breast): > 100 µM; TGI (MDA-N): 58.4 µM
14 | Cc1ccccc1NC(=O)c1ccc([N+](=O)[O-])cc1 | > 100 µM | > 100 µM | > 100 µM | > 100 µM | – | > 100 | > 100 µM | –
15 | CCCCCCNCCCNc1c2ccccc2nc2cccc([N+](=O)[O-])c12 | – | – | – | – | – | – | – | TGI (HS 578T breast): 0.21 µM and 0.434 µM; TGI (MDA-N): 0.0252 µM and 0.103 µM
16 | Cn1sc2ccccc2c1=S | 27.1 µM | 17.6 µM | 7.46 µM | 31 µM | – | 25.1 | 28.4 µM | TGI (P388/ADR leukemia): 2.86 µM; TGI (SN12K1 renal): 7.41 µM; TGI (P388 leukemia): 1.67 µM
17 | COc1ccc(C2c3c(-c4ccccc4)nn(-c4ccccc4)c3Oc3ncn4nc(CC#N)nc4c32)cc1OC (configuration not stated) | – | – | – | – | – | – | – | TGI (HS 578T breast): 59.1 µM and 6.86 µM; GI50 (MDA-N): > 100 µM and 16.2 µM; TGI (MDA-N): > 100 µM
18 | C=C(CN(C)C)C(=O)c1ccc(Oc2ccccc2)cc1 | 5.04 µM | 46.8 µM | – | 41.9 µM | 35.9 | 27.9 | 13.3 µM | TGI (HS 578T breast): 21.7 µM; TGI (MDA-N): 9.38 µM
19 | C=C[C@H]1C=Cc2c(OC)cccc2[C@@H]1COP1(=S)NC(C)C(c2ccccc2)O1 (some centres not stated) | > 100 µM | > 100 µM | > 100 µM | > 100 µM | – | > 100 | > 100 µM | –
20 | Cc1ccc(NC(=O)CC2C(=O)Nc3ccccc3S2=O)c(C)c1 (configuration not stated) | 61.6 µM | > 54.1 µM | 34.4 µM | 47.6 µM | > 71.3 | 28.7 | 67.4 µM | –
21 | COc1cc(Nc2nc3cc(C(F)(F)F)ccc3nc2C)cc(OC)c1OC | 21.7 µM | 30 µM | 23.8 µM | 25.9 µM | – | 8.77 | – | –

Row | SMILES | TGI (LXFL 529 NSCLC) | TGI (DMS 273 small cell lung) | TGI (DMS 114 small cell lung) | TGI (SNB-78 CNS) | TGI (RXF-631 renal) [µM] | TGI (XF 498 CNS) [µM] | TGI (HOP-18 NSCLC) | further results
22 | FC(F)(F)c1cccc(C2SCc3nc4ccccc4n32)c1 (configuration not stated) | > 100 µM | > 100 µM | > 100 µM | > 100 µM | – | – | – | –
23 | COc1ccc(C2C3=C(COC3=O)Oc3cc4c(cc32)OCO4)cc1 (configuration not stated) | – | > 100 µM | 38.2 µM | > 100 µM | – | > 100 | 89.5 µM | –
24 | O=C(Cc1ccccc1)NS(=O)(=O)c1ccccc1 | > 100 µM | > 100 µM | > 100 µM | > 100 µM | > 100 | > 100 | > 100 µM | –
25 | Cc1c(CC/C(=N\Nc2ccc([N+](=O)[O-])cc2[N+](=O)[O-])c2ccccc2)c2ccccc2n1C | > 100 µM | > 100 µM | > 100 µM | > 100 µM | > 100 | > 100 | – | –
26 | O=NN(CCCl)C(=O)N[C@H]1CCCC[C@@H]1Cl | > 100 µM | > 100 µM | > 100 µM | – | – | > 100 | > 100 µM | –
27 | CC(C)c1ccc2nc3ccc(C(=O)NCCN4CCN(c5ccccc5)CC4)cn3c(=O)c2c1 | – | – | – | – | – | – | – | TGI (HS 578T breast): > 100 µM; TGI (MDA-N): > 100 µM
28 | c1ccc2c(c1)[nH]c1c2ncc2[nH]c3ccccc3c21 | 13.2 µM | 9.39 µM | 6.69 µM | 27.2 µM | 5.05 | 3.3 | 14.9 µM | –
29 | CC1=CC(=O)c2ccc(C)cc2C1=O | – | – | – | – | – | – | – | TGI (HS 578T breast): > 100 µM; TGI (MDA-N): 1.17 µM
30 | CC1=Nc2ccccc2C12C(c1ccccc1)C(c1ccccc1)C(=O)N1c3ccccc3CC12 (configuration not stated) | > 100 µM | > 100 µM | > 100 µM | > 100 µM | > 100 | 87.2 | – | –
31 | CCOC(=O)C(C(=O)OCC)=c1sc(=C(C(=O)OCC)C(=O)OCC)s1 | > 100 µM | > 100 µM | – | > 100 µM | – | – | – | –
32 | C[CH2][Sn]([CH2]C)([O]C(=O)c1ccc(F)cc1)[O][Sn]([CH2]C)([CH2]C)[O]C(=O)c1ccc(F)cc1 | 25.8 µM | > 100 µM | – | 50.4 µM | – | 31 | > 100 µM | GI50 (LXFL 529 NSCLC): 13 µM; GI50 (HOP-18 NSCLC): > 100 µM; GI50 (DMS 273 small cell lung): > 100 µM; GI50 (SNB-78 CNS): 21.1 µM; GI50 (XF 498 CNS): 16.4 µM
33 | COC(C)(C)[C@H](O)C(O)CC(C)[C@@H]1CCC23CC12CCC1[C@@]2(C)CCC(OC(C)=O)C(C)(C)C2CC(OC2OC(COC(C)=O)C(O)C(O)C2O)[C@]13C (some centres not stated) | 12.8 µM and 19.2 µM | 10.2 µM and 23.4 µM | 8.65 µM and 12.8 µM | 17.9 µM and 31.7 µM | 12.8 | – | 19.7 µM and 13.3 µM | GI50 (LXFL 529 NSCLC): 6.23 µM; GI50 (HOP-18 NSCLC): 4.15 µM; GI50 (DMS 273 small cell lung): 7.7 µM; GI50 (DMS 114 small cell lung): 3.62 µM; GI50 (SNB-78 CNS): 14 µM
34 | CCCCCC/C=C1\CCC(CN(C)C)C1=O (configuration not stated) | 3.8 µM | 11.4 µM | 8.99 µM | – | – | 7.49 | 28.8 µM | TGI (HS 578T breast): 40.3 µM; TGI (SN12K1 renal): 4.35 µM; TGI (MDA-N): 17.1 µM
35 | O=C(O)[C@@H](NS(=O)(=O)c1ccc([N+](=O)[O-])cc1)c1ccccc1 | > 100 µM | > 100 µM | – | – | > 100 | > 100 | > 100 µM | –
36 | N#CSc1ccc(S(N)(=O)=O)cc1 | – | – | – | – | – | – | – | TGI (HS 578T breast): > 100 µM; TGI (MDA-N): > 100 µM
37 | CC(C)c1cccc(C(C)C)c1NC(=O)CCC(=O)NN | > 100 µM | > 100 µM | > 100 µM | > 100 µM | – | – | > 100 µM | –
38 | CCOC(=O)c1cc(OC(=O)CC)c2c(OC)ccc(OC)c2c1 | > 100 µM | > 100 µM | > 100 µM | – | – | > 100 | > 100 µM | –
39 | O=c1ccnc(SCc2ccc(Cl)cc2)[nH]1 | – | – | – | – | – | – | – | TGI (HS 578T breast): > 100 µM; TGI (MDA-N): > 100 µM
40 | CCCN1C(=O)CNC(=O)c2[nH]cnc21 | > 100 µM | – | > 100 µM | > 100 µM | – | > 100 | > 100 µM | –
41 | Cn1c(=O)c2[nH]c(CCCCc3nc4c([nH]3)c(=O)n(C)c(=S)n4C)nc2n(C)c1=S | – | – | – | – | – | – | – | TGI (HS 578T breast): > 100 µM; TGI (MDA-N): > 100 µM
